# Measured values from patent US20250230193A1, “CYCLIC COMPOUND HAVING SELECTIVE KRAS INHIBITORY EFFECT ON HRAS AND NRAS” (CHUGAI SEIYAKU KABUSHIKI KAISHA, priority 2022, published 2025).
# How the values were obtained:
# [1] = target: GDP-bound HRAS wild-type protein (Homo sapiens, UniProt P01112); experiment: Binding to HRAS by surface plasmon resonance (SPR), Single Cycle Kinetics; conditions: KD ratio, GDP-bound HRAS wild-type vs GDP-bound KRAS wild-type, SPR
# [2] = target: GDP-bound NRAS wild-type protein (Homo sapiens, UniProt P01111); experiment: Binding to NRAS by surface plasmon resonance (SPR), Single Cycle Kinetics; conditions: KD ratio, GDP-bound NRAS wild-type vs GDP-bound KRAS wild-type, SPR
# Chain of GDP-bound NRAS wild-type protein (P01111 whole entry): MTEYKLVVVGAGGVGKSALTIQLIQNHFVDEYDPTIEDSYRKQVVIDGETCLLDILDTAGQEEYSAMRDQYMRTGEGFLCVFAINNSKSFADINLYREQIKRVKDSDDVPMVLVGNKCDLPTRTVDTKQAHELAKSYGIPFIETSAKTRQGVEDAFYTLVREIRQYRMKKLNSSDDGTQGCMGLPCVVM
# Chain of GDP-bound HRAS wild-type protein (P01112 whole entry): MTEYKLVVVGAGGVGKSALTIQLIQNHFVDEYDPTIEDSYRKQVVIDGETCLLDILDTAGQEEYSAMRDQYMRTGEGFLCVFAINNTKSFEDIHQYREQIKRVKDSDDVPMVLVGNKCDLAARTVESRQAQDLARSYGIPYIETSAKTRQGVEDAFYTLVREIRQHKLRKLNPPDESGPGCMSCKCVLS
SMILES,HRAS/KRAS (ratio of KD value with respect to HRAS to KD value with respect to KRAS) [1],NRAS/KRAS (ratio of KD value with respect to NRAS to KD value with respect to KRAS) [2]
CCO[C@@H]1C[C@H]2C(=O)NC3(CCC3)C(=O)N(C)[C@@H](C3CCCC3)C(=O)N(CC)[C@H](C(=O)N3CCOCC3)CC(=O)N(C)[C@@H](CC)C(=O)N[C@@H]([C@@H](C)CC)C(=O)N(C)CC(=O)N(C)[C@H]3C/C=C\CCN(C3=O)[C@@H](Cc3ccc(C(F)(F)F)cc3)C(=O)N(C)CC(=O)N[C@@H](CCc3cc(F)c(C(F)(F)F)c(F)c3)C(=O)N2C1 [PP0979],A (a compound having 10 or more and less than 20 is denoted as A),AA (a compound having 20 or more is denoted as AA)
CCO[C@@H]1C[C@H]2C(=O)NC3(CCC3)C(=O)N(C)[C@@H](C3CCCC3)C(=O)N(CC)[C@H](C(=O)N(C)C)CC(=O)N(C)[C@@H](CC)C(=O)N[C@@H]([C@@H](C)CC)C(=O)N(C)CC(=O)N(C)[C@H]3C/C=C\CCN(C3=O)[C@@H](Cc3ccc(C(F)(F)F)cc3)C(=O)N(C)CC(=O)N[C@@H](CCc3cc(F)c(C(F)(F)F)c(F)c3)C(=O)N2C1 [PP0980],B (a compound having 3 or more and less than 10 is denoted as B),A (a compound having 10 or more and less than 20 is denoted as A)
CCO[C@@H]1C[C@H]2C(=O)NC3(CCC3)C(=O)N(C)[C@@H](C3CCCC3)C(=O)N(CCC3CCCC3)[C@H](C(=O)N3CCOCC3)CC(=O)N(C)[C@@H](CC)C(=O)N[C@@H]([C@@H](C)CC)C(=O)N(C)CC(=O)N(C)[C@H]3C/C=C\CCN(C3=O)[C@@H](Cc3ccc(C(F)(F)F)cc3)C(=O)N(C)CC(=O)N[C@@H](CCc3cc(F)c(C(F)(F)F)c(F)c3)C(=O)N2C1 [PP0981],A (a compound having 10 or more and less than 20 is denoted as A),AA (a compound having 20 or more is denoted as AA)
CCO[C@@H]1C[C@H]2C(=O)NC3(CCC3)C(=O)N(C)[C@@H](C3CCCC3)C(=O)N(CCC3CCCC3)[C@H](C(=O)N(C)C)CC(=O)N(C)[C@@H](CC)C(=O)N[C@@H]([C@@H](C)CC)C(=O)N(C)CC(=O)N(C)[C@H]3C/C=C\CCN(C3=O)[C@@H](Cc3ccc(C(F)(F)F)cc3)C(=O)N(C)CC(=O)N[C@@H](CCc3cc(F)c(C(F)(F)F)c(F)c3)C(=O)N2C1 [PP0982],A (a compound having 10 or more and less than 20 is denoted as A),AA (a compound having 20 or more is denoted as AA)
CCO[C@@H]1C[C@H]2C(=O)NC3(CCC3)C(=O)N(C)[C@@H](C3CCCC3)C(=O)N(C)[C@H](C(=O)N(C)C)CC(=O)N(C)[C@@H](CC)C(=O)N[C@@H]([C@@H](C)CC)C(=O)NCC(=O)N(C)[C@H]3C/C=C\CCN(C3=O)[C@@H](Cc3ccc(C(F)(F)F)cc3)C(=O)N(C)CC(=O)N[C@@H](CCc3cc(F)c(C(F)(F)F)c(F)c3)C(=O)N2C1 [PP0983],A (a compound having 10 or more and less than 20 is denoted as A),A (a compound having 10 or more and less than 20 is denoted as A)
CCO[C@@H]1C[C@H]2C(=O)NC3(CCC3)C(=O)N(C)[C@@H](C3CCCC3)C(=O)N(C)[C@H](C(=O)N(C)C)CC(=O)N(C)[C@@H](CC)C(=O)N[C@@H]([C@@H](C)CC)C(=O)N3CC[C@H]3C(=O)N(C)[C@H]3C/C=C\CCN(C3=O)[C@@H](Cc3ccc(C(F)(F)F)cc3)C(=O)N(C)CC(=O)N[C@@H](CCc3cc(F)c(C(F)(F)F)c(F)c3)C(=O)N2C1 [PP0984],A (a compound having 10 or more and less than 20 is denoted as A),A (a compound having 10 or more and less than 20 is denoted as A)
CCO[C@@H]1C[C@H]2C(=O)NC3(CCC3)C(=O)N(C)[C@@H](C3CCCC3)C(=O)N(C)[C@H](C(=O)N(C)C)CC(=O)N(C)[C@@H](CC)C(=O)N[C@@H]([C@@H](C)CC)C(=O)N(C)CC(=O)N(C)[C@H]3CCCCN(C3=O)[C@@H](Cc3ccc(C(F)(F)F)cc3)C(=O)N(C)CC(=O)N[C@@H](CCc3cc(Cl)c(C(F)(F)F)c(Cl)c3)C(=O)N2C1 [PP0985],C (A compound having a KD ratio of 0.1 or more and less than 3 is denoted as C),C (A compound having a KD ratio of 0.1 or more and less than 3 is denoted as C)
CCO[C@@H]1C[C@H]2C(=O)NC3(CCC3)C(=O)N(C)[C@@H](C3CCCC3)C(=O)N(C)[C@H](C(=O)N(C)C)CC(=O)N(C)[C@@H](CC)C(=O)N[C@@H]([C@@H](C)CC)C(=O)N(C)CC(=O)N(C)[C@H]3CCCCN(C3=O)[C@@H](Cc3ccc(C(F)(F)F)cc3)C(=O)N(C)CC(=O)N[C@@H](CCc3ccc(OC(F)F)c(F)c3)C(=O)N2C1 [PP0986],C (A compound having a KD ratio of 0.1 or more and less than 3 is denoted as C),C (A compound having a KD ratio of 0.1 or more and less than 3 is denoted as C)
CCO[C@@H]1C[C@H]2C(=O)NC3(CCC3)C(=O)N(C)[C@@H](C3CCCC3)C(=O)N(C)[C@H](C(=O)N(C)C)CC(=O)N(C)[C@@H](CC)C(=O)N[C@@H]([C@@H](C)CC)C(=O)N(C)CC(=O)N(C)[C@H]3CCCCN(C3=O)[C@@H](Cc3ccc(C(F)(F)F)cc3)C(=O)N(C)CC(=O)N[C@@H](CCc3ccc(Cl)c(Cl)c3)C(=O)N2C1 [PP0987],C (A compound having a KD ratio of 0.1 or more and less than 3 is denoted as C),C (A compound having a KD ratio of 0.1 or more and less than 3 is denoted as C)
CCO[C@@H]1C[C@H]2C(=O)NC3(CCC3)C(=O)N(C)[C@@H](C3CCCC3)C(=O)N(C)[C@H](C(=O)N(C)C)CC(=O)N(C)[C@@H](CC)C(=O)N[C@@H]([C@@H](C)CC)C(=O)N(C)CC(=O)N(C)[C@H]3CCCCN(C3=O)[C@@H](Cc3ccc(C(F)(F)F)cc3)C(=O)N(C)CC(=O)N[C@@H](CCc3cc(Cl)c(Cl)c(Cl)c3)C(=O)N2C1 [PP0988],B (a compound having 3 or more and less than 10 is denoted as B),C (A compound having a KD ratio of 0.1 or more and less than 3 is denoted as C)
CCO[C@@H]1C[C@H]2C(=O)NC3(CCC3)C(=O)N(C)[C@@H](C3CCCC3)C(=O)N(C)[C@H](C(=O)N(C)C)CC(=O)N(C)[C@@H](CC)C(=O)N[C@@H]([C@@H](C)CC)C(=O)N(C)CC(=O)N(C)[C@H]3CCCCCN(C3=O)[C@@H](Cc3ccc(C(F)(F)F)cc3)C(=O)N(C)CC(=O)N[C@@H](CCc3cc(Cl)c(C(F)(F)F)c(Cl)c3)C(=O)N2C1 [PP0989],B (a compound having 3 or more and less than 10 is denoted as B),B (a compound having 3 or more and less than 10 is denoted as B)
CCO[C@@H]1C[C@H]2C(=O)N[C@]3(C)CCCCCC[C@@H](C(=O)N[C@@H]([C@@H](C)CC)C(=O)N(C)CC(=O)N(C)[C@H]4CCCCN(C4=O)[C@@H](Cc4ccc(C(F)(F)F)cc4)C(=O)N(C)CC(=O)N[C@@H](CCc4cc(F)c(C(F)(F)F)c(F)c4)C(=O)N2C1)N(C)C(=O)C[C@@H](C(=O)N1CCOCC1)N(C)C(=O)[C@H](C1CCCC1)N(C)C3=O [PP0992],B (a compound having 3 or more and less than 10 is denoted as B),B (a compound having 3 or more and less than 10 is denoted as B)
CCO[C@@H]1C[C@H]2C(=O)N[C@@]3(C)CCCCCCC[C@@H](C(=O)N[C@@H]([C@@H](C)CC)C(=O)N(C)CC(=O)N(C)[C@H]4CCCCN(C4=O)[C@@H](Cc4ccc(C(F)(F)F)cc4)C(=O)N(C)CC(=O)N[C@@H](CCc4cc(F)c(C(F)(F)F)c(F)c4)C(=O)N2C1)N(C)C(=O)C[C@@H](C(=O)N1CCOCC1)N(C)C(=O)[C@H](C1CCCC1)N(C)C3=O [PP0993],B (a compound having 3 or more and less than 10 is denoted as B),B (a compound having 3 or more and less than 10 is denoted as B)
CCCCO[C@@H]1C[C@H]2C(=O)NC3(CCC3)C(=O)N(C)[C@@H](C3CCCC3)C(=O)N(C)[C@H](C(=O)N3CCOCC3)CC(=O)N(C)[C@@H](CC(C)C)C(=O)N[C@@H]([C@@H](C)CC)C(=O)N(C)CC(=O)N(C)[C@H]3CCCCN(C3=O)[C@@H](Cc3ccc(C(F)(F)F)cc3)C(=O)N(C)CC(=O)N[C@@H](CCc3cc(F)c(C(F)(F)F)c(F)c3)C(=O)N2C1 [PP0999],B (a compound having 3 or more and less than 10 is denoted as B),C (A compound having a KD ratio of 0.1 or more and less than 3 is denoted as C)
CC[C@H](C)[C@@H]1NC(=O)[C@H](CC(C)C)N(C)C(=O)C[C@@H](C(=O)N2CCOCC2)N(C)C(=O)[C@H](C2CCCC2)N(C)C(=O)C2(CCC2)NC(=O)[C@@H]2C[C@@H](OCC3CC3)CN2C(=O)[C@H](CCc2cc(F)c(C(F)(F)F)c(F)c2)NC(=O)CN(C)C(=O)[C@H](Cc2ccc(C(F)(F)F)cc2)N2CCCC[C@@H](C2=O)N(C)C(=O)CN(C)C1=O [PP1000],B (a compound having 3 or more and less than 10 is denoted as B),B (a compound having 3 or more and less than 10 is denoted as B)
